Experimental data as given in patent US20240115649A1, “CASPASE INHIBITION TO ENHANCE REGENERATION AND REPAIR AFTER SKIN OR GUT INJURY AND TO TREAT BACTERIAL OR VIRAL INFECTIONS” (The Johns Hopkins University, priority 2020, published 2024).

How the values were obtained:
TNF = assay: Serum TNF levels after S. aureus skin inoculation; type: in vivo, mice; details: days 1 and 3; vs untreated
Method: (§1) Serum IL-1β and TNF levels. Serum IL-1β and TNF protein levels (pg/mL) were measured from serum collected on days 1 and 3 after S. aureus skin inoculation±Q-VD-OPH treatment using Bio-Plex protein assays and normalized to total protein, according to the manufacturer's recommendations (Bio-Rad).

[1] = tested on: monocytes, macrophages and neutrophils isolated from the infected skin; assay: Flow cytometry of single-cell suspensions from CA-MRSA-infected skin; type: in vivo, mice
Method: Flow cytometry. 10-mm skin punch biopsies were collected, minced and enzymatically digested in 3 mL RPMI containing 100 μg/mL DNaseI (Sigma-Aldrich) and 1.67 Wunsch U/ml Liberase TL (Roche) for 1 hour at 37° C. and shaken at 140 rpm. Single-cell suspensions were obtained after filtering the digested samples through a 40-μm cell filter using a 3 mL syringe plunger and cells were then washed in RPMI. […] The cells were further labeled for intracellular pMLKL, which was detected via anti-pMLKL mAb that was biotinylated with Biotin conjugation/Fast/Type A kit (Abcam), as per manufacturer's instructions, along with other intracellular mAbs against IL-1β and TNF (Supplemental Table S1). […] For immunophenotyping of Langerhans cells and monocyte-derived dendritic cells (DCs), cells were first gated on CD45^+ and then CD207^+CD103^− (Langerhans cells) and CD45^+CD11c^+CD115^+ monocyte-derived DCs (FIG. 11), modified from previously described methods (61). The absolute numbers of the respective cell populations were calculated as (Total number of live cells X [% of cell population/100]).

S. pyogenes strain Xen20 [2] = type: cell-based; details: 10, 100 and 1,000 μg/mL; vs vehicle
[3] = tested on: mouse epithelial keratinocytes; assay: Mouse epithelial keratinocyte culture (qRT-PCR, immunoblot)
ASC specks = assay: ASC speck formation in ASC-Citrine mice (in vivo FLI, PuLSA assay)
S. pyogenes strain Xen20 [4] = type: in vivo; details: WT C57BL/6 mice; single dose at 4 hours; vs untreated
IL-1β = assay: Serum IL-1β levels after S. aureus skin inoculation; type: in vivo, mice; details: days 1 and 3
Method: as §1

pMLKL, MLKL, ICAD = assay: Western blot analysis of infected skin; type: in vivo, mice
mouse neutrophils = assay: Neutrophil cultures with live S. aureus ± caspase inhibitors; details: Q-VD-OPH 10 μg/mL, live S. aureus 6 hours
BMDMs = assay: BMDM cultures with live S. aureus ± caspase inhibitors; details: Q-VD-OPH 10 μg/mL, live S. aureus 6 hours
neogenic hair follicles = assay: Wound Induced Hair Neogenesis (WIHN) assay; type: in vivo, mice
Method: Wound Induced Hair Neogenesis (WIHN) Assay. All in vivo experimental surgical procedures were performed as previously characterized ^1,2,6-8. In short, after exposure to vaporizing anesthesia (Baxter, Isoflurane) the dorsal side of male and female 3-week-old (21 days) mice were shaved at approximately 8-10 g of weight. Using surgical scissors, approximately 1.26 cm^2×1.25 cm^2 of skin was excised creating wounds deep into the fascia. At 3 days post-wounding, a single dose (50 μl) of 100 μg/mL high molecular weight (HMW) polyinosinic-polycytidylic acid (Poly (I:C)) (Invivogen, tlrl-pic) was administered underneath the scab site via injection in both wild-type and transgenic mice as previously described^2,8. For functional experiments characterizing IL-36 on WIHN, a single dose (50 μl) of 1 μg/mL recombinant mouse IL-36α protein (R&D Systems, 7059-ML/CF) was injected underneath the scab site at 7 days post-wounding. For rescue experiments using the small molecule, broad spectrum pan-caspase inhibitor, 20 ul of 5 mg/mL Q-VD-OPh (in DMSO) was diluted 130 μL of phosphate-buffered saline (PBS) (1.33 mM final concentration) and injected intraperitoneally in mice 24 hours prior to wounding and approximately 10 days after wounding (scab detachment).
Immunofluorescence, immunocytochemistry, and immunohistochemistry.

Staphopain B (sspB) = molecular target: T1, Staphopain B (sspB) (Staphylococcus aureus, UniProt P0C1S6); assay: Protease activity assays and protein blot, Staphopain B; type: biochemical, S. aureus
T1 construct: purchased CUSABIO
T1 sequence (P0C1S6 220-393): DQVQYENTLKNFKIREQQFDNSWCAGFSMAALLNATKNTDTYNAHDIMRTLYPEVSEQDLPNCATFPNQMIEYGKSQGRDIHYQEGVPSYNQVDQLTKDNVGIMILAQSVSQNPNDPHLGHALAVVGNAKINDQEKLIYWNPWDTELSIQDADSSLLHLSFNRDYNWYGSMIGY

[5] = Q-VD-OPH treated TNF^−/− mice, day 1
[6] = Q-VD-OPH treated WT mice, day 1
[7] = TNF^−/− mice, day 1, vs untreated
[8] = WT mice, infected skin day 1, vs untreated
[9] = Emricasan 9 μg/mL, no significant differences vs no treatment

CC(C)[C@H](NC(=O)c1ccc2ccccc2n1)C(=O)N[C@@H](CC(=O)O)C(=O)COc1c(F)cccc1F [Q-VD-OPH, Quinoline-val-asp-difluorophenoxymethyl ketone]
serum TNF protein levels (TNF): increased serum TNF protein levels | pMLKL+ MFI [1, 5]: 540 | pMLKL+ total cells, absolute numbers [1, 5]: 1.5×10^4 cells | pMLKL+ total cells, percentage [1, 5]: 15% | pMLKL+ MFI [1, 6]: 2250 | pMLKL+ total cells, absolute numbers [1, 6]: 1.0×10^5 cells | pMLKL+ total cells, percentage [1, 6]: 81% | percentages and absolute number of macrophages ([1]; TNF^−/− mice, day 1): statistically increased | percentages and absolute number of monocytes ([1]; TNF^−/− mice, day 1, compared with Q-VD-OPH treated WT mice): no increase | necroptosis (pMLKL+) total leukocytes: MFI, percentages and absolute numbers ([1]; TNF^−/− mice, day 1, vs TNF^−/− untreated): significantly greater | early apoptotic (Annexin V+) neutrophils [1, 7]: significantly decreased | early apoptotic cells (Annexin V+) of total leukocytes [1, 7]: significantly decreased | percentages and absolute number of neutrophils ([1]; TNF^−/− mice, infected skin day 1, vs untreated or Q-VD-OPH treated WT mice): significantly reduced | intracellular pro-IL-1β: MFI and percentages of total leukocytes (CD45+pro-IL-1β+) ([1]; WT mice, day 1, especially macrophages and neutrophils but not monocytes): increased mean fluorescence intensity (MFI) and percentages of total leukocytes | TNF+ macrophages ([1]; WT mice, day 1, vs untreated): significantly greater | TNF+ monocytes ([1]; WT mice, day 1, vs untreated): significantly greater | TNF+ neutrophils ([1]; WT mice, day 1, vs untreated): significantly greater | TNF+ total leukocytes (CD45+TNF+): MFI, percentages and absolute number ([1]; WT mice, day 1, vs untreated): significantly greater | early apoptotic (Annexin V+) monocytes, percentages and absolute numbers ([1]; WT mice, day 1, vs untreated): significantly decreased | early apoptotic (Annexin V+) neutrophils, percentages and absolute numbers ([1]; WT mice, day 1, vs untreated): significantly decreased | early apoptotic cells (Annexin V+) of total leukocytes, percentages and absolute numbers ([1]; WT mice, day 1, vs untreated): significantly decreased | necroptosis (pMLKL+) macrophages ([1]; WT mice, day 1, vs untreated): significantly greater | necroptosis (pMLKL+) total leukocytes: MFI, percentages and absolute numbers ([1]; WT mice, day 1, vs untreated): significantly greater | percentages and absolute numbers of neutrophils [1, 8]: no differences | percentages of macrophages [1, 8]: statistically increased | percentages of monocytes [1, 8]: statistically increased | in vitro absorbance and bioluminescence (S. pyogenes strain Xen20 [2]): no differences in in vitro absorbance and bioluminescence | IL-36 receptor (IL36r) expression ([3]; 48 hrs treatment): not detected | IL-36 receptor antagonist (IL-36m) protein or mRNA levels ([3]; 48 hrs treatment): No differences | IL-36α mRNA ([3]; 48 hrs treatment): higher levels of IL-36α mRNA and protein | Tlr3 expression ([3]; 48 hrs treatment): again elevated | caspase gene mRNA (inflammatory caspases 1 and 4) ([3]; 48 hrs treatment): compensatory mRNA increases of caspase genes | IL-36α protein (whole-cell lysates) ([3]; mouse epithelial keratinocytes): higher levels of IL-36α mRNA and protein | in vivo ASC speck formation (in vivo FLI signals) (ASC specks; ASC-Citrine mice, 6 hours following Q-VD-OPH administration): virtually inhibited all in vivo ASC speck formation | percentage of total ASC-Citrine expression in live cells (ASC specks; infected skin, day 1, treated vs untreated): not significantly different | percentage of cells with ASC-Specks (PuLSA assay) (ASC specks; infected skin, day 1, vs untreated): substantially reduced percentage of cells with ASC-Specks | bacterial burden (in vivo BLI) (S. pyogenes strain Xen20 [4]): rapidly reduced bacterial burden | skin lesion sizes (S. pyogenes strain Xen20 [4]): substantially decreased skin lesion sizes | serum levels of IL-1β (IL-1β): decreased serum levels of IL-1β | necroptosis (pMLKL and MLKL expression) (pMLKL, MLKL, ICAD; TNF^−/− mice, day 1, vs untreated or Q-VD-OPH treated WT mice): reduced necroptosis | apoptosis (ICAD) (pMLKL, MLKL, ICAD; TNF^−/− mice, infected skin day 1): reduced apoptosis | apoptosis (ICAD) (pMLKL, MLKL, ICAD; WT mice, infected skin day 1): reduced apoptosis | necroptosis (pMLKL, MLKL) (pMLKL, MLKL, ICAD; WT mice, infected skin day 1): increases necroptosis | necroptosis (western blot for pMLKL and MLKL) (mouse neutrophils): necroptosis was increased | percentages of TNF+ neutrophils (mouse neutrophils; Emricasan 9 μg/mL): 25.47% | viable cells (Zombie UV negative cells) (mouse neutrophils; [9]): ~50% | necroptosis (western blot for pMLKL and MLKL) (BMDMs): necroptosis was increased | percentages of TNF+ BMDMs (BMDMs; Emricasan 9 μg/mL): 33.53% | viable cells (Zombie UV negative cells) (BMDMs; [9]): ~80% | WIHN (neogenic hair follicles; Il36r^−/− mice treated with Q-VD-OPh): do not | WIHN (neogenic hair follicles; wild-type mice, Q-VD-OPh 1.33 mM i.p. 24 hours prior to and ~10 days after wounding, vs vehicle): more WIHN | IL-36α in the epidermis of re-epithelialized wounds (neogenic hair follicles; wild-type mice, Q-VD-OPh i.p., vs vehicle): higher levels of IL-36α in the epidermis of re-epithelialized wounds | physical conformational changes or degradation of sspB (protein blot) (Staphopain B (sspB); 2 hours at 37° C.): did not induce any physical conformational changes or cause degradation | activity of sspB on gelatinase activity or elastin proteolysis (Staphopain B (sspB); Q-VD-OPH 10 μg/mL, 20 hours): did not affect the activity
